Laboratory results reported in patent US5939409A, “Processes for the production of anti-inflammatory steroids” (priority 1991, dated 1999).

Assays:
[1] = tested on: Sephadex induced lung edema (left lung lobe); assay: Local antiinflammatory activity on airway mucosa (left lung lobe), Sephadex induced lung edema, local instillation; assay type: in vivo, Sprague Dawley rat; conditions: rat; for ED50 (left lung administration), left lung lobe: required glucocorticosteroid dose to reduce the edema by 50% / ED50: left lung instillation 2 h before Sephadex (5 mg/kg), left lung lobe weighed 20 h later, relative to Sephadex control group; for ED50: read-out: ED50 (left lung administration), left lung lobe: required glucocorticosteroid dose to reduce the edema by 50%
Method: A. Test model for desired local antiinflammatory activity on airway mucosa (left lung lobe)
Sprague Dawley rats (250 g) were slightly anaesthetized with Ephrane and the glucocorticosteroid test preparation (suspended in saline) in a volume of 0.5 ml/kg was instilled into just the left lung lobe. Two hours later a suspension of Sephadex (5 mg/kg in a volume of 1 ml/kg) was instilled under slight anaesthesia in the trachea well above the bifurcation so that the suspension reached both the left and right lung lobes. Twenty hours later the rats were killed and the left lung lobes dissected out and weighed. Control groups got saline instead of glucocorticosteroid preparation and saline instead of Sephadex suspension to determine the weight of non-drug treated Sephadex edema and the normal lung weight.

[2] = tested on: Sephadex induced lung edema (lung); assay: Unwanted systemic effect by orally absorbed glucocorticosteroid, Sephadex induced lung edema; assay type: in vivo, Sprague Dawley rat; conditions: for ED50: po, read-out: ED50 (p.o. administration), lung: required glucocorticosteroid dose to reduce the edema by 50%; for ED50 / ED50 (p.o. administration), lung: required glucocorticosteroid dose to reduce the edema by 50%: rat, p.o. 2 h before Sephadex (5 mg/kg), lung lobes weighed 20 h later, relative to Sephadex control group; for dose required to inhibit lung edema (ED50) by oral administration relative to dose needed by local application to the lung (lung selectivity): ratio oral ED50 / local lung ED50, rat
Method: B. Test model for unwanted systemic effect by orally absorbed glucocorticosteroid
Sprague Dawley rats (250 g) were slightly anaesthetized with Ephrane and after that the GCS test preparation in a volume of 0,5 ml/kg was given orally. Two hours later a suspension of Sephadex (5 mg/kg in a volume of 1 ml/kg) was instilled in the trachea well above the bifurcation so that the suspension reached both the left and the right lung lobes. Twenty hours later, the rats were killed and the lung lobes were weighed. Control groups got saline instead of glucocorticosteroid preparation and saline instead of Sephadex suspension to determine the weight of non-drug treated Sephadex edema and the normal weight.

## CCCC1O[C@@H]2C[C@H]3[C@@H]4CCC5=CC(=O)C=C[C@]5(C)[C@H]4[C@@H](O)C[C@]3(C)[C@]2(C(=O)CO)O1 (stereo partly drawn) [Budesonide, reference compound]
[1]
  ED50 (left lung administration), left lung lobe: required glucocorticosteroid dose to reduce the edema by 50%: 300 nmol/kg
  ED50: 0.3 µmol/kg
[2]
  ED50: 4 µmol/kg
  ED50 (p.o. administration), lung: required glucocorticosteroid dose to reduce the edema by 50%: 4000 nmol/kg
  dose required to inhibit lung edema (ED50) by oral administration relative to dose needed by local application to the lung (lung selectivity): 13 times

## CCC[C@@H]1O[C@@H]2C[C@H]3[C@@H]4C[C@H](F)C5=CC(=O)CC[C@]5(C)[C@@]4(F)[C@@H](O)C[C@]3(C)[C@]2(C(=O)CO)O1 [Example 6, (22R)-16α,17α-butylidenedioxy-6α,9α-difluoro-11β,21-dihydroxypregn-4-ene-3,20-dione]
[1]; in words, left lung administration
  local antiinflammatory activity compared with budesonide: much higher local antiinflammatory activity than budesonide
[1]
  ED50 (left lung administration), left lung lobe: required glucocorticosteroid dose to reduce the edema by 50%: 10 nmol/kg
  ED50: 0.01 µmol/kg
[2]; in words, oral vs local lung ED50, rat
  lung selectivity compared to the selected prior art compound (budesonide): higher lung selectivity
[2]
  ED50: 0.32 µmol/kg
  ED50 (p.o. administration), lung: required glucocorticosteroid dose to reduce the edema by 50%: 320 nmol/kg
  dose required to inhibit lung edema (ED50) by oral administration relative to dose needed by local application to the lung (lung selectivity): 32 times
